Assay results: paper PMC7343282, “Tissue Distribution of Several Series of Cationic Surfactants in Rainbow Trout (Oncorhynchus mykiss) Following Exposure via Water” (Environmental Science & Technology, 2020)
Read-outs that look alike come from different tables or passages of the source.

Key:
Danio rerio = conditions: ref REACH dossiers (European Chemicals Agency); cited from earlier work
[1] = system: rainbow trout (Oncorhynchus mykiss); experiment: Contribution of tissues to fish body burden; type: in vivo; conditions: for Contribution of Other tissue (all apart from blood, liver, gills and skin; muscle concentration assumed) to body burden: fraction; for % contribution to body burden, Gills / % contribution to body burden, Liver / % contribution to body burden, Mucus / % contribution to body burden, Muscle / % contribution to body burden, Skin / Share of body burden present in gills and mucus / Share of body burden in interior tissues (blood, liver, and muscle): in vivo
Text: To calculate the quantity of the test chemical in the different tissues, the amount of each tissue in the fish was estimated and multiplied by the concentration in that tissue. The test chemical quantities in the different tissues were then summed to give the body burden in each fish. The total weight of the fish and the weight of the liver and gills were available from the dissection (Table S16). For skin and mucus, the estimated outer surface area of the fish was used. We note that the distinction between mucus and skin is an operational one determined by the extraction method; mucus can be viewed as a more readily extracted fraction of the test chemical residues at the fish surface. The volume of blood was taken as 0.0495 mL g^–1 fish.[30] The remaining tissue (difference between the weight of the whole fish and the weight of liver, gills, skin, and blood) was assumed to have the concentration measured in the muscle. The contribution of the different tissues to the body burden is given for each fish in Table S17, and the average contribution across all fish is plotted in Figure 1. All of the tissues, with the exception of blood, contribute at least 10% of the body burden for at least half of the test chemicals. There is no consistent negative correlation between the fraction of chemical associated with blood, muscle, and liver (tissues where the residue originates entirely from systemic uptake) and alkyl chain length (a measure of hydrophobicity). Thus, although adsorption to fish surfaces appears to play a significant role, its contribution to body burden cannot be simply predicted from surfactant hydrophobicity. In the following, we examine uptake in individual tissues.

Salmo trutta = system: Salmo trutta; set-up: method as in REACH dossiers (European Chemicals Agency); conditions: ref REACH dossiers (European Chemicals Agency); cited from earlier work
[2] = system: rainbow trout (Oncorhynchus mykiss); experiment: Surface area-normalized mucus-water and gill-water distribution coefficients; conditions: in vivo
Experimental: For each mixture, the syringe pump was started in an aquarium containing no fish. After 16 h, to allow the concentrations to stabilize, 12 rainbow trout were added. After 7 d of exposure, the fish in the exposure aquaria as well as several unexposed (control) fish were sacrificed. Following stunning, blood was collected with a heparinized syringe from the caudal vein into a 2 mL Eppendorf tube. The fish were weighed and photographed, and the length was measured. The outer surface area of the fish was estimated from the fish weight according to O’Shea et al.[27] [drawing 1] 1
The gill surface area was estimated from the fish weight according to the equation specific for O. mykiss from a report by Hughes,[28] taken from ref ([29]) [drawing 2] 2
Because the mass of extracted mucus was not determined, the concentrations in mucus were normalized to the estimated fish’s total surface area (eq 1) excluding the head, which was not rinsed.
Surface area-normalized gill–water distribution coefficients (DG–W) were calculated from the average concentrations measured in gills and water, and a calculated gill surface based on rainbow trout specific scaling factors (eq 2). […] Unlike the skin, the gills were not rinsed with methanol, so the gill samples included gill mucus.

[3] = cited from earlier work
[4] = cited from earlier work; remark: listed apart in the source
killifish = conditions: cited from earlier work
[5] = system: bluegill fish (Lepomis macrochirus); conditions: cited from earlier work
[6] = secondary amines, no reference given

SMILES	% contribution to body burden, Gills [1]	% contribution to body burden, Liver [1]	% contribution to body burden, Mucus [1]	% contribution to body burden, Muscle [1]	% contribution to body burden, Skin [1]	Gill-water distribution coefficient (DG-W) [2]	Mucus-water distribution coefficient (DMuc-W) [2]	also measured
CCCCCCCCCCCCCCN(C)C [T14, N,N-dimethyltetradecylamine]	34%	7%	11%	22%	24%	150 mLcm-2	51 mL cm-2	96h-LC50 (Danio rerio): 0.35 µg/mL; Contribution of Other tissue (all apart from blood, liver, gills and skin; muscle concentration assumed) to body burden ([1]; Fish #1): 0.22; Contribution of Other tissue (all apart from blood, liver, gills and skin; muscle concentration assumed) to body burden ([1]; Fish #2): 0.21; Contribution of Other tissue (all apart from blood, liver, gills and skin; muscle concentration assumed) to body burden ([1]; Fish #3): 0.24; Contribution of Other tissue (all apart from blood, liver, gills and skin; muscle concentration assumed) to body burden ([1]; Fish #4): 0.21; Contribution of Other tissue (all apart from blood, liver, gills and skin; muscle concentration assumed) to body burden ([1]; Fish #5): 0.20; Contribution of Other tissue (all apart from blood, liver, gills and skin; muscle concentration assumed) to body burden ([1]; Fish #6): 0.24; Contribution of Other tissue (all apart from blood, liver, gills and skin; muscle concentration assumed) to body burden ([1]; Mean): 0.22; 96h-LC50 (Salmo trutta): 0.18 µg/mL
CCCCCCCCCCCCCCCCNC [S16, N-methylhexadecylamine]	53%	12%	4%	16%	14%	300 mLcm-2	27 mL cm-2	Share of body burden present in gills and mucus [1]: at least 50%
CCCCCCCCCC[N+](C)(C)C [Q10, N,N,N-trimethyl-1-decylammonium]	23%	3%	11%	37%	24%	0.0064 mLcm-2	0.0035 mL cm-2	DG–W factor lower than tertiary amine of the same alkyl chain length [2]: 300; DMuc–W times lower than tertiary amine with the corresponding alkyl chain length [2]: 360
CCCCCCCCCCCCNC [S12, N-methyldodecylamine]	20%	17%	7%	32%	21%	13.3 mLcm-2	5.4 mL cm-2	Share of body burden in interior tissues (blood, liver, and muscle) [1]: more than half
CCCCCCCCCCCCCC[N+](C)(C)C [Q14, N,N,N-trimethyl-1-tetradecylammonium]	70%	5%	10%	7%	8%	9.5 mLcm-2	1.40 mL cm-2	Share of body burden present in gills and mucus [1]: at least 50%; DG–W factor lower than tertiary amine of the same alkyl chain length [2]: 18; DMuc–W higher than Q10 [2]: 2.6 log units; DMuc–W times lower than tertiary amine with the corresponding alkyl chain length [2]: 37
CN[C@H]1CC[C@@H](c2ccc(Cl)c(Cl)c2)c2ccccc21 [sertraline, reference compound]	–	–	–	–	–	–	–	log DMW ([3]; membrane–water distribution coefficient): 4.3; pKa [4, 6]: > 9.5
COc1ccc([C@@H]2Sc3ccccc3N(CCN(C)C)C(=O)[C@@H]2OC(C)=O)cc1 [diltiazem]	–	–	–	–	–	–	–	Vd, plasma concentration based (killifish): 0.19–0.28 L kg^–1
CCCCCCCCCCN(C)C [T10, N,N-dimethyldecylamine]	14%	18%	8%	38%	18%	1.95 mLcm-2	1.28 mL cm-2	96h-LC50 (Danio rerio): 1.13 µg/mL; Contribution of Other tissue (all apart from blood, liver, gills and skin; muscle concentration assumed) to body burden ([1]; Fish #1): 0.54; Contribution of Other tissue (all apart from blood, liver, gills and skin; muscle concentration assumed) to body burden ([1]; Fish #2): 0.33; Contribution of Other tissue (all apart from blood, liver, gills and skin; muscle concentration assumed) to body burden ([1]; Fish #3): 0.35; Contribution of Other tissue (all apart from blood, liver, gills and skin; muscle concentration assumed) to body burden ([1]; Fish #4): 0.29; Contribution of Other tissue (all apart from blood, liver, gills and skin; muscle concentration assumed) to body burden ([1]; Fish #5): 0.38; Contribution of Other tissue (all apart from blood, liver, gills and skin; muscle concentration assumed) to body burden ([1]; Fish #6): 0.37; Contribution of Other tissue (all apart from blood, liver, gills and skin; muscle concentration assumed) to body burden ([1]; Mean): 0.38; Share of body burden in interior tissues (blood, liver, and muscle) [1]: more than half; 96h-LC50 (Salmo trutta): 1.8 µg/mL
CNCCC(Oc1ccc(C(F)(F)F)cc1)c1ccccc1 (centres unmarked) [fluoxetine, reference compound]	–	–	–	–	–	–	–	pKa [4, 6]: > 9.5
CCCCCCCCCC[N+](C)(C)CCCCCCCCCC [didecyldimethylammonium chloride]	–	–	–	–	–	–	–	bioconcentration factor (BCF) ([5]; 14C-labeled): 81 L kg^–1; 14C residues in the skin, times higher than in edible tissues [5]: 2–6
CN(C)CCC=C1c2ccccc2CCc2ccccc21 [amitriptyline, reference compound]	–	–	–	–	–	–	–	log DMW [3]: 3.9; pKa [4]: […]
